Laboratory results: patent publication US12310975B2, “Modulators of BCL6 proteolysis and associated methods of use” (Arvinas Operations, Inc., priority 2019, dated 2025)

How the values were obtained:
BCL6 [1] = biological target: T1, BCL6 (Homo sapiens (Human), UniProt P41182); assay: BCL6 TR-FRET assay (BCL6-Avitag-Biotin / BCoR-Cy5 peptide); type: binding
Method: Protein Synthesis. BCL6 protein was expressed by transforming Invitrogen One Shot cells with GS63525 pET24a-His-SUMO-TEV-BCLm-Avitag plasmid following manufacturer's instructions. In addition, biotin at a final concentration of 50 μM, and IPTG at a final concentration of 1 mM was added to the culture and incubated at room temperature shaking overnight.
Assay buffer A: 50 mM HEPES pH 7.5, 125 mM NaCl, 0.01% TritonX.
Assay buffer B (made fresh): buffer A+1 mM Glutathione (or 0.5 mM DTT).
Assay buffer C (made fresh): buffer B+0.03% BSA.
Black Proxy plates, 96 well.
15 μl final reaction volumes (BCoR-Cy5 100 nM, SA-Eu 2 nM, BCL6-avitag 2 nM).
[…] BCL6-Avitag-Biotin stock: made fresh by adding 2 μl of BCL6-Avitag-Biotin to 31.5 ml Buffer C.
1 mM BCoR-Cy5 peptide (LifeTein) stock in Dimethylformamide (DMF).
300 nM BCoR-Cy5 working stock: made fresh by adding 4.5 μl of the 1 mM BCoR-Cy5 peptide stock to 15 ml Buffer B.
10 μM Eu-Streptavidin (Lance Eu-W1024 Streptavidin, PerkinElmer) stock solution.
6 nM Eu-Streptavidin working stock: made fresh by adding 9 μl Eu-Streptavidin stock solution to 15 ml Buffer A.
Compounds were diluted to 10 mM. Twenty microliters of DMSO was aliquoted to each well of the microtiter plates. From the 10 mM compound stock, 8.7 ul was aliquoted to the 20 ul DMSO and 3-fold serial dilutions (12 pt 3-0.01 uM tritration plate, 96 well, 100% DMSO) performed. Five ul from the titration plate wells was aliquoted to 45 ul Buff C (Intermediate dilution plates, 10% DMSO).
Spot 1.5 μl compound titrations to 384-well plates in duplicate, and spot 3.5 μl [8.5 nM] BCL6-bio protein to each well. The plate was mix briefly, centrifuged, and incubated for 30 minutes at room temperature.
Mix 14 mls of BCoR-Cy5 [300 nM] and 14 mls [6 nM] Eu-Streptavidin. Spot 10 μl BCoR-Cy5/SA-Eu (1:1) mix to each well. The plates were incubated for 2 hours and then read on an Envision plate reader.

BCL6 [2] = biological target: T1, BCL6; assay: Immunofluorescence high content imaging of BCL6 degradation in T47D cells; type: cell-based; conditions: for Dmax: T47D; for DC50: class symbols A-D, read-out: EC50 (nM)*
Method in brief: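 Read-out is BCL6 immunofluorescence quantified by high-content imaging (10×, 4 fields per well) of T47D breast cancer cells. Cells were exposed for 3 days to degrader in an 11-point, 3-fold serial dilution reaching a final top concentration of 0.1 or 1 μM.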

[3] = class symbols A-D, read-out: IC50 (nM)***

Compound: CNC(=O)COc1cc2cc(Nc3nc(N4CCC(O[C@@H]5C[C@H](Oc6ccc7c(c6)C(=O)N(C6CCC(=O)NC6=O)C7=O)CN(C)C5)CC4)ncc3Cl)ccc2n(C(C)C)c1=O (stereo partly drawn) [compound 461, 2-[(6-{[5-chloro-2-(4-{[(3R,5S)-5-{[2-(2,6-dioxopiperidin-3-yl)-1,3-dioxo-2,3-dihydro-1H-isoindol-5-yl]oxy}-1-methylpiperidin-3-yl]oxy}piperidin-1-yl)pyrimidin-4-yl]amino}-2-oxo-1-(propan-2-yl)-1,2-dihydroquinolin-3-yl)oxy]-N-methylacetamide]
- IC50 (BCL6 [1]; read-out: IC50): 10 to 50 nM
- Dmax (BCL6 [2]): 50 to 70%

Compound: CNC(=O)COc1cc2cc(Nc3nc(N4CC5(CCC(OC6CCN(c7cccc8c7C(=O)N(C7CCC(=O)NC7=O)C8=O)CC6)CC5)C4)ncc3Cl)ccc2n(C(C)C)c1=O (stereo not drawn) [compound 445, 2-{[6-({5-chloro-2-[7-({1-[2-(2,6-dioxopiperidin-3-yl)-1,3-dioxo-2,3-dihydro-1H-isoindol-4-yl]piperidin-4-yl}oxy)-2-azaspiro[3.5]nonan-2-yl]pyrimidin-4-yl}amino)-2-oxo-1-(propan-2-yl)-1,2-dihydroquinolin-3-yl]oxy}-N-methylacetamide]
- IC50 (BCL6 [1]; read-out: IC50): < 10 nM
- Dmax (BCL6 [2]): ≥ 70%

Compound: CN(C)C(=O)COc1cc2cc(Nc3nc(N4CCC(CN5CCN(c6ccc7c(c6)C(=O)N(C6CCC(=O)NC6=O)C7=O)CC5)CC4)ncc3Cl)ccc2n(C)c1=O (stereo not drawn) [compound 166, 2-((6-((5-chloro-2-(4-((4-(2-(2,6-dioxopiperidin-3-yl)-1,3-dioxoisoindolin-5-yl)piperazin-1-yl)methyl)piperidin-1-yl)pyrimidin-4-yl)amino)-1-methyl-2-oxo-1,2-dihydroquinolin-3-yl)oxy)-N,N-dimethylacetamide]
- IC50 (BCL6 [1]; [3]): 50 to 100 nM
- Dmax (BCL6 [2]; maximum, class symbols A-C): < 50%
- DC50 (BCL6 [2]): > 100 nM

Compound: CNC(=O)COc1cc2cc(Nc3nc(N4CCN(CC5CCN(c6ccc7c(c6)C(=O)N(C6CCC(=O)NC6=O)C7=O)CC5)C(=O)C4)ncc3Cl)ccc2n(C)c1=O (stereo not drawn) [compound 201, 2-((6-((5-chloro-2-(4-((1-(2-(2,6-dioxopiperidin-3-yl)-1,3-dioxoisoindolin-5-yl)piperidin-4-yl)methyl)-3-oxopiperazin-1-yl)pyrimidin-4-yl)amino)-1-methyl-2-oxo-1,2-dihydroquinolin-3-yl)oxy)-N-methylacetamide]
- EC50 (BCL6 [1]): 10 to 50 nM
- IC50 (BCL6 [2]): ≥ 100 nM
- Dmax (BCL6 [2]): ≥ 70%

Compound: CNC(=O)[C@H](C)Oc1cc2cc(Nc3nc(N4CCC(CN5CCN(c6ccc7c(c6)C(=O)N([C@@H]6CCC(=O)NC6=O)C7=O)CC5)CC4)ncc3Cl)ccc2n(C)c1=O [compound 213, (S)-2-((6-((5-chloro-2-(4-((4-(2-((R)-2,6-dioxopiperidin-3-yl)-1,3-dioxoisoindolin-5-yl)piperazin-1-yl)methyl)piperidin-1-yl)pyrimidin-4-yl)amino)-1-methyl-2-oxo-1,2-dihydroquinolin-3-yl)oxy)-N-methylpropanamide]
- EC50 (BCL6 [1]): > 100 nM
- IC50 (BCL6 [2]): ≥ 100 nM

Compound: CNC(=O)[C@@H](C)Oc1cc2cc(Nc3nc(N4CCC(CN5CCN(c6ccc7c(c6)C(=O)N([C@@H]6CCC(=O)NC6=O)C7=O)CC5)CC4)ncc3Cl)ccc2n(C)c1=O [compound 212, (R)-2-((6-((5-chloro-2-(4-((4-(2-((R)-2,6-dioxopiperidin-3-yl)-1,3-dioxoisoindolin-5-yl)piperazin-1-yl)methyl)piperidin-1-yl)pyrimidin-4-yl)amino)-1-methyl-2-oxo-1,2-dihydroquinolin-3-yl)oxy)-N-methylpropanamide]
- EC50 (BCL6 [1]): 10 to 50 nM
- IC50 (BCL6 [2]): ≥ 100 nM

Compound: CNC(=O)COc1cc2cc(Nc3nc(N4CCC(CN5CCN(c6ccc7c(c6)C(=O)N(C6CCC(=O)NC6=O)C7=O)CC5)CC4)ncc3Cl)ccc2n(C)c1=O (stereo not drawn) [compound 104, 2-((6-((5-chloro-2-(4-((4-(2-(2,6-dioxopiperidin-3-yl)-1,3-dioxoisoindolin-5-yl)piperazin-1-yl)methyl)piperidin-1-yl)pyrimidin-4-yl)amino)-1-methyl-2-oxo-1,2-dihydroquinolin-3-yl)oxy)-N-methylacetamide]
- IC50 (BCL6 [1]; [3]): 10 to 50 nM
- Dmax (BCL6 [2]; maximum, class symbols A-C): 50 to 70%
- DC50 (BCL6 [2]): 10 to 50 nM

Compound: CNC(=O)/C=C/c1cc2cc(Nc3nc(N4CCC(CN5CCN(c6ccc7c(c6)C(=O)N(C6CCC(=O)NC6=O)C7=O)CC5)CC4)ncc3Cl)ccc2n(C)c1=O (stereo not drawn) [compound 174, (E)-3-(6-((5-chloro-2-(4-((4-(2-(2,6-dioxopiperidin-3-yl)-1,3-dioxoisoindolin-5-yl)piperazin-1-yl)methyl)piperidin-1-yl)pyrimidin-4-yl)amino)-1-methyl-2-oxo-1,2-dihydroquinolin-3-yl)-N-methylacrylamide]
- IC50 (BCL6 [1]; [3]): 10 to 50 nM
- Dmax (BCL6 [2]; maximum, class symbols A-C): 50 to 70%

Compound: CNC(=O)COc1cc2cc(Nc3nc(N4CCC(CN5CC(N6CCN(c7cccc8c7C(=O)N(C7CCC(=O)NC7=O)C8=O)CC6)C5)CC4)ncc3Cl)ccc2n(C(C)C)c1=O (stereo not drawn) [compound 499, 2-({6-[(5-chloro-2-{4-[(3-{4-[2-(2,6-dioxopiperidin-3-yl)-1,3-dioxo-2,3-dihydro-1H-isoindol-4-yl]piperazin-1-yl}azetidin-1-yl)methyl]piperidin-1-yl}pyrimidin-4-yl)amino]-2-oxo-1-(propan-2-yl)-1,2-dihydroquinolin-3-yl}oxy)-N-methylacetamide]
- IC50 (BCL6 [1]; read-out: IC50): < 10 nM
- Dmax (BCL6 [2]): ≥ 70%

Compound: CNC(=O)COc1cc2cc(Nc3nc(N4CCC(OC5CN(C6CCN(c7ccc8c(c7)C(=O)N(C7CCC(=O)NC7=O)C8=O)CC6)C5)CC4)ncc3Cl)ccc2n(C(C)C)c1=O (stereo not drawn) [compound 526, 2-({6-[(5-chloro-2-{4-[(1-{1-[2-(2,6-dioxopiperidin-3-yl)-1,3-dioxo-2,3-dihydro-1H-isoindol-5-yl]piperidin-4-yl}azetidin-3-yl)oxy]piperidin-1-yl}pyrimidin-4-yl)amino]-2-oxo-1-(propan-2-yl)-1,2-dihydroquinolin-3-yl}oxy)-N-methylacetamide]
- IC50 (BCL6 [1]; read-out: IC50): < 10 nM
- Dmax (BCL6 [2]): 50 to 70%

Compound: CNC(=O)COc1cc2cc(Nc3nc(N4CCC(OC5CN(C6CCN(c7cccc8c7C(=O)N(C7CCC(=O)NC7=O)C8=O)CC6)C5)CC4)ncc3Cl)ccc2n(C(C)C)c1=O (stereo not drawn) [compound 525, 2-({6-[(5-chloro-2-{4-[(1-{1-[2-(2,6-dioxopiperidin-3-yl)-1,3-dioxo-2,3-dihydro-1H-isoindol-4-yl]piperidin-4-yl}azetidin-3-yl)oxy]piperidin-1-yl}pyrimidin-4-yl)amino]-2-oxo-1-(propan-2-yl)-1,2-dihydroquinolin-3-yl}oxy)-N-methylacetamide]
- IC50 (BCL6 [1]; read-out: IC50): < 10 nM
- Dmax (BCL6 [2]): 50 to 70%

Compound: CNC(=O)COc1cc2cc(Nc3nc(N4CCCC(COc5ccc(C6CCN(CCC(O)c7ccc8c(c7)CN(C7CCC(=O)NC7=O)C8=O)CC6)cc5)C4)ncc3Cl)ccc2n(C)c1=O (stereo not drawn) [compound 127, 2-((6-((5-chloro-2-(3-((4-(1-(3-(2-(2,6-dioxopiperidin-3-yl)-1-oxoisoindolin-5-yl)-3-hydroxypropyl)piperidin-4-yl)phenoxy)methyl)piperidin-1-yl)pyrimidin-4-yl)amino)-1-methyl-2-oxo-1,2-dihydroquinolin-3-yl)oxy)-N-methylacetamide]
- IC50 (BCL6 [1]; [3]): < 10 nM
- Dmax (BCL6 [2]; maximum, class symbols A-C): < 50%
- DC50 (BCL6 [2]): 10 to 50 nM

Compound: CNC(=O)COc1cc2cc(Nc3nc(N4CCC(CN5CCCN(c6ccc(OC)c(N7CCC(=O)NC7=O)c6)CC5)CC4)ncc3Cl)ccc2n(C(C)C)c1=O [compound 530, 2-{[6-({5-chloro-2-[4-({4-[3-(2,4-dioxo-1,3-diazinan-1-yl)-4-methoxyphenyl]-1,4-diazepan-1-yl}methyl)piperidin-1-yl]pyrimidin-4-yl}amino)-2-oxo-1-(propan-2-yl)-1,2-dihydroquinolin-3-yl]oxy}-N-methylacetamide]
- IC50 (BCL6 [1]; read-out: IC50): 10 to 50 nM

Compound: CNC(=O)COc1cc2cc(Nc3nc(N4CCC(CN5CCC6(CC5)CCN(c5ccc(N7CCC(=O)NC7=O)c(OC)c5)C6)CC4)ncc3Cl)ccc2n(C(C)C)c1=O [compound 509, 2-{[6-({5-chloro-2-[4-({2-[4-(2,4-dioxo-1,3-diazinan-1-yl)-3-methoxyphenyl]-2,8-diazaspiro[4.5]decan-8-yl}methyl)piperidin-1-yl]pyrimidin-4-yl}amino)-2-oxo-1-(propan-2-yl)-1,2-dihydroquinolin-3-yl]oxy}-N-methylacetamide]
- IC50 (BCL6 [1]; read-out: IC50): ≥ 100 nM
